Results: US20230263803A1, “METHODS OF PREVENTING OR TREATING COVID-19 AND RELATED VIRAL DISEASES OR DISORDERS” (KINARUS AG, priority 2020, published 2023)

Tests used:
[1] = tested on: SARS-CoV-2 B1.351 variant; assay type: cell-based; conditions: at the highest concentrations; Vero B4 cells, 72 hrs, qRT-PCR
[2] = tested on: SARS-CoV-2B.1.1.7 variant; assay type: cell-based; conditions: at the highest concentrations; Vero B4 cells, 72 hrs, qRT-PCR

## Cn1c(=O)c(Oc2ccc(F)cc2F)cc2cnc(NC(CCO)CCO)nc21 [Pamapimod, 6-(2,4-Difluorophenoxy)-2-[3-hydroxy-1-(2-hydroxyethyl)-propylamino]-8-methyl-8H-pyrido[2,3-d]pyrimidin-7-one]
[1]
  inhibition of viral shedding, B1.351 variant: > 90%
[2]
  inhibition of viral shedding, B.1.1.7 variant: > 90%
